Experiments:
mouse [1] = conditions: Subchronic oral toxicity in rodents, cd1, Feed, dose end: 13 week, group: systemic, systemic / hematology / leukocyte (wbc) count differential / leukocyte (wbc) + systemic / hematology / lymphocyte / lymphocyte + systemic / …
rat [2] = conditions: Multigenerational reproductive toxicity study, sprague dawley, Oral, Feed, dose end: 2 generation
rabbit [3] = conditions: Prenatal developmental toxicity study, new zealand white, Oral, Capsule, dose end: 18 GD
mouse [4] = conditions: Carcinogenicity; other; Oral; Feed; dose end: 18 month; group: systemic; systemic / in life observation / body weight / body weight
rabbit [5] = conditions: Prenatal developmental toxicity study, new zealand white, Oral, Capsule, dose end: 18 GD; remark: listed apart in the source
rat [6] = conditions: Combined chronic toxicity/carcinogenicity, other, Oral, Feed, dose end: 24 month, group: systemic
mouse [7] = conditions: Carcinogenicity; other; Oral; Feed; dose end: 18 month; group: systemic; systemic / in life observation / body weight / body weight; remark: listed apart in the source
mouse [8] = conditions: Carcinogenicity, cd1, Oral, Feed, dose end: 18 month
rat [9] = conditions: Combined chronic toxicity/carcinogenicity, sprague dawley, Oral, Feed, dose end: 24 month, group: systemic
dog = conditions: Chronic toxicity, beagle, Oral, Feed, dose end: 60 week, group: cholinesterase
[10] = group: offspring, systemic / in life observation / body weight / offspring (pup) weight + systemic / in life observation / body weight / offspring (pup) …
[11] = group: parental, systemic / in life observation / body weight / body weight + systemic / in life observation / body weight / body weight gain + systemic / in…
[12] = group: parental, systemic / in life observation / body weight / body weight gain
[13] = group: developmental, systemic / in life observation / body weight / fetal weight
[14] = group: maternal, systemic / in life observation / clinical signs / anorexia + systemic / pathology gross / stomach / fluid contents + systemic / pathology …
[15] = group: maternal, systemic / in life observation / clinical signs / anorexia + systemic / in life observation / clinical signs / no feces + systemic / in life…
[16] = systemic / organ weight / kidney / absolute + systemic / organ weight / kidney / relative to body weight
[17] = group: cholinesterase, cholinesterase / cholinesterase / cholinesterase / brain cholinesterase (che) + cholinesterase / cholinesterase / cholinesterase / …
[18] = group: systemic, systemic / in life observation / body weight / body weight gain + systemic / in life observation / food consumption / food consumption + …
[19] = systemic / in life observation / body weight / body weight + systemic / in life observation / body weight / body weight gain + systemic / …
[20] = cholinesterase / cholinesterase / cholinesterase / erythrocyte cholinesterase (che) + cholinesterase / cholinesterase / cholinesterase / …
[21] = cholinesterase / cholinesterase / cholinesterase / plasma cholinesterase (che)

COc1cc(OC)nc(NC(=O)NS(=O)(=O)c2cc(NC=O)ccc2C(=O)N(C)C)n1 [Foramsulfuron]
LEL (mouse [1]): 1000 mg/kg/day
LOAEL (mouse [1]): > 1000 mg/kg/day
NEL (mouse [1]): 498 mg/kg/day
NOAEL (mouse [1]): ≥ 1000 mg/kg/day

CC(C)([CH2][Sn]([CH2]C(C)(C)c1ccccc1)([CH2]C(C)(C)c1ccccc1)[O][Sn]([CH2]C(C)(C)c1ccccc1)([CH2]C(C)(C)c1ccccc1)[CH2]C(C)(C)c1ccccc1)c1ccccc1 [Fenbutatin oxide]
LEL (rat [2]; group: offspring, systemic / in life observation / body weight / offspring (pup) weight): 5.92 mg/kg/day
LOAEL (rat [2]; [10]): 17.4 mg/kg/day
NEL (rat [2]; [10]): 3.18 mg/kg/day
NOAEL (rat [2]; [10]): 5.2 mg/kg/day
LOAEL (rat [2]; [11]): 30 mg/kg/day
NOAEL (rat [2]; [11]): 14.8 mg/kg/day
LEL (rat [2]; [12]): 2.39 mg/kg/day
NEL (rat [2]; [12]): < 2.39 mg/kg/day
LEL (rabbit [3]; [13]): 10 mg/kg/day
LOAEL (rabbit [3]; [13]): 10 mg/kg/day
NEL (rabbit [3]; [13]): 5 mg/kg/day
NOAEL (rabbit [3]; [13]): 5 mg/kg/day
LEL (rabbit [3]; [14]): 5 mg/kg/day
LOAEL (rabbit [3]; [14]): 5 mg/kg/day
NEL (rabbit [3]; [14]): 1 mg/kg/day
NOAEL (rabbit [3]; [14]): 1 mg/kg/day
LEL (mouse [4]): 45 mg/kg/day
LOAEL (mouse [4]): 45 mg/kg/day
NEL (mouse [4]): 15 mg/kg/day
NOAEL (mouse [4]): 15 mg/kg/day
LEL (rabbit [5]; [13]): 10 mg/kg/day
LOAEL (rabbit [5]; [13]): 10 mg/kg/day
NEL (rabbit [5]; [13]): 5 mg/kg/day
NOAEL (rabbit [5]; [13]): 5 mg/kg/day
LEL (rabbit [5]; [15]): 5 mg/kg/day
LOAEL (rabbit [5]; [15]): 5 mg/kg/day
NEL (rabbit [5]; [15]): 1 mg/kg/day
NOAEL (rabbit [5]; [15]): 1 mg/kg/day
LOAEL (rat [6]; systemic / clinical chemistry / alkaline phosphatase (alp/alk) / alkaline phosphatase (alp/alk)): 15 mg/kg/day
NOAEL (rat [6]; systemic / clinical chemistry / alkaline phosphatase (alp/alk) / alkaline phosphatase (alp/alk) + systemic / clinical chemistry / urea …): 5 mg/kg/day
LEL (rat [6]; [16]): 2.5 mg/kg/day
NEL (rat [6]; [16]): < 2.5 mg/kg/day
LEL (mouse [7]): 45 mg/kg/day
LOAEL (mouse [7]): 45 mg/kg/day
NEL (mouse [7]): 15 mg/kg/day
NOAEL (mouse [7]): 15 mg/kg/day

CCOP(=S)(OCC)Oc1nc(Cl)n(C(C)C)n1 [Isazofos]
LEL (mouse [8]; [17]): 4.5 mg/kg/day
LOAEL (mouse [8]; [17]): 4.5 mg/kg/day
NEL (mouse [8]; [17]): 0.15 mg/kg/day
NOAEL (mouse [8]; [17]): 0.15 mg/kg/day
LEL (mouse [8]; [18]): 37.5 mg/kg/day
LOAEL (mouse [8]; [18]): 37.5 mg/kg/day
NEL (mouse [8]; [18]): 4.5 mg/kg/day
NOAEL (mouse [8]; [18]): 4.5 mg/kg/day
LOAEL (rat [9]; systemic / in life observation / body weight / body weight + systemic / in life observation / body weight / body weight gain): 10 mg/kg/day
LEL (rat [9]; [19]): 10 mg/kg/day
NEL (rat [9]; [19]): 0.05 mg/kg/day
NOAEL (rat [9]; [19]): 0.05 mg/kg/day
LOAEL (dog; [20]): > 1.61 mg/kg/day
NOAEL (dog; [20]): ≥ 1.61 mg/kg/day
LEL (dog; [21]): 0.0015 mg/kg/day
NEL (dog; [21]): < 0.0015 mg/kg/day

From EPA's ToxRefDB 2
